The conditions of data set [1]: beagle, insert nominal dose 0.7 mg, in 6 weeks.
The nature of data set [2]: Proof of concept PK study Example 3.2: cyclosporine tear fluid concentration and drug released from inserts. Format: in vivo, beagle dogs. The settings on record: beagle, insert nominal dose 0.44 mg, over 32 days, assuming consistent daily release. The text has this:
Inserts were removed at 32 days to determine the amount of remaining drug compared to the administered dose.

The conditions of data set [3]: for Cyclosporine per insert Mean ± SD: initial 671±13 μg; for Cyclosporine per insert, OD: 0.67 mg insert (initial 671±13 μg), 9% 4a20K SG/trilysine.

Structures are written as SMILES. Several values for one entry are separate records, joined by “and”; a condition that tells them apart may be missing. Identical values can stand only once. Like-named read-outs stand apart in the source and are kept apart here.

Consider `CC=CCC(C)C(O)C1C(=O)NC(CC)C(=O)N(C)CC(=O)N(C)C(CC(C)C)C(=O)NC(C(C)C)C(=O)N(C)C(CC(C)C)C(=O)NC(C)C(=O)NC(C)C(=O)N(C)C(CC(C)C)C(=O)N(C)C(CC(C)C)C(=O)N(C)C(C(C)C)C(=O)N1C` (centres unmarked) [cyclosporine, 30-ethyl-33-(1-hydroxy-2-methylhex-4-enyl)-1,4,7,10,12,15,19,25,28-nonamethyl-6,9,18,24-tetrakis(2-methylpropyl)-3,21-di(propan-2-yl)-1,4,7,10,13,16,19,22,25,28,31-undecazacyclotritriacontane-2,5,8,11,14,17,20,23,26,29,32-undecone], for which the “average amount of cyclosporine released” value in data set [1] is given as 0.37 mg. For the same molecule, the “estimated daily delivered dose” value in data set [2] is 6.3 µg/day. The “Cyclosporine per insert Mean ± SD” value was found to be 576 ± 18 µg in data set [3] (amount left in inserts removed from beagles at day 28, all eyes) and 494 ± 32 µg in data set [3] (amount left in inserts removed from beagles at day 50, all eyes). The “Cyclosporine per insert, OD” value is 596 µg in data set [3] (amount left in single insert removed from beagle right eye at day 28); 520 µg and 521 µg and 451 µg in data set [3] (amount left in single insert removed from beagle right eye at day 50). For the same molecule, the released amount in data set [3] (beagle, initial dose 671±13 μg, 28 days) worked out at 3.4 µg; in data set [3] (beagle, initial dose 671±13 μg, 50 days), 3.5 µg. Besides, the “amount of cyclosporine left in the removed insert” value worked out at 576 ± 18 µg in data set [3] (beagle, initial dose 671±13 μg, inserts removed at 28 days) and 494 ± 32 µg in data set [3] (beagle, initial dose 671±13 μg, inserts removed at 50 days). Moreover, the “daily estimated delivered dose” value in data set [3] (beagle, initial dose 671±13 μg, over 28 and 50 days) is “approximately 3.5 μg/day”.

(Values after patent US11779536B2 (Ocular Therapeutix, Inc., priority 2020, dated 2023).)
